Measurements taken from paper PMC4267740, “Unprecedented Therapeutic Potential with a Combination of A2A/NR2B Receptor Antagonists as Observed in the 6-OHDA Lesioned Rat Model of Parkinson's Disease” (PLoS ONE, 2014).
Entries after “also recorded” stand apart in the source; their conditions may differ.

Tests used:
[1] = tested on: unilateral 6-OHDA-lesioned rats; assay: Distance traveled in actometers, monotherapy (without L-Dopa); assay type: in vivo, rat
Method: (§1) To protect norepinephrinergic neurons, animals were administered imipramine HCl (Sigma) 15 minutes before surgery. They were subsequently anesthetized with ketamine (Ceva, 75 mg/kg) and xylazine (Bayer, 10 mg/kg) and placed in stereotaxic frame (David Kopf Instrument). 6-OHDA was injected into the right ascending medial forebrain bundle at the following coordinates (in mm) relative to bregma and surface of the dura, AP = −3.5, ML = −1.5, DV = −8.7. Each rat received one injection of 6-OHDA (4 µg/µl) over a period of 5 minutes (0.5 µl/min) for a total of 10 µg per rat. Animals were monitored for 3 weeks to ensure full recovery and habituation to the environment and experimenters.
(§2) On day 21 post surgery, all rats were challenged with a small dose of subcutaneously administered apomorphine (Sigma, 0.05 mg/kg). Rats showing more than 90 contralateral rotations (360°) over a 45-minute recording period were included in the study. […] For each experiment, rats were allocated to the different experimental groups in order to get the same mean level of basal activity measured at the apomorphine challenge amongst the different experimental groups.
(§3) Drug-naïve separate rats were tested individually in clear acrylic chambers (LE8811 IR, Panlab). Locomotion was detected and measured by 16 infrared light-beam sensors located on each side of the enclosure at a height of 3 cm. Sensors were spaced such that the light beams formed a matrix of 15×15 squares over the surface. Activity counts were recorded on a computer and Acti-Track software (Actitrack, Panlab) was used to convert raw data into “distance traveled” and “rearing counts” for analysis as relevant dependent variables.
(§4) Six different combinations of A2A/NR2B antagonists were tested without L-Dopa. For each combination, there were four different procedures: vehicle only; A2A antagonist followed by vehicle; vehicle followed by the NR2B antagonist and A2A antagonist followed by the NR2B antagonist. The drugs, doses and combinations are described in Table 3. After drug administration, rats were placed in actometers (open-field) for monitoring the general level of motor activity (distance traveled and rearing counts).
(§5) Before undertaking the study, each A2A and NR2B antagonist was tested individually. The doses were selected on the basis of preliminary dose-response curves performed separately for each drug and submaximal dose (i.e. response observed is not at its maximal level) of each drug was selected for the combination studies. The two drugs were administered separately via an intraperitoneal (ip) injection with a 2-minute interval between the two drugs. Five minutes after the second injection, animals were placed in the testing cage for behavioural recording. Due to formulation and exposure issues, Tozadenant and Radiprodil had to be administered orally and therefore recording was started 60 minutes post dosing at this corresponds to maximum plasma concentrations. Eight drug-naïve animals were used for each of the four procedures; 32 in total for each combination. All behavioral experiments were conducted between 8.00 AM and 2.00 PM at the latest. Preliminary pharmacokinetic assays investigated the plasma and brain disposition of selected drugs administered alone or in combination (ie. Tozadenant/Radiprodil, and Sch-58261/Co-101244; 3 animals per group). Tozadenant and Radiprodil were measured in samples obtained 60 minutes after single oral administration at 30 mg/kg. Sch-58261 and Co-101244 were measured in samples collected 90 min after single intraperitoneal administration at 3 mg/kg.
(§6) The effects of A2A and NR2B antagonists on the level of motor activity (i.e. distance traveled and rearing counts) were assessed with three-way mixed ANOVA, combining the A2A receptor antagonist (2 levels, vehicle and the A2A drug) and the NR2B antagonist (2 levels, vehicle and the NR2B drug) as between-group factors with the time as within-subjects factor (6 or 9 levels). […]

[2] = tested on: unilateral 6-OHDA-lesioned rats; assay: Rearing counts in actometers, monotherapy (without L-Dopa); assay type: in vivo, rat
Method: as §1, §2, §3, §4, §5, §6

[3] = tested on: unilateral 6-OHDA-lesioned rats; assay: L-Dopa-induced contralateral rotations in rotometers, add-on therapy; assay type: in vivo, rat; details: add-on to L-Dopa 25 mg/kg ip, Preladenant 0.03 mg/kg ip
Method: as §1, §2
The rats tested one week earlier for general activity (actometers) were once again placed in clear acrylic individual chambers (50×45 cm) with the same treatment (drug and dose) than that previously received plus L-Dopa. Eight chambers were placed on a level, clear glass bottom, held by a robust frame, and were subdivided into four individual test cages of 25×22 cm. A removable acrylic plate served as a lid.
Rotational behaviour was recorded using a home-made computerized system. Rats were fixed in a harness and linked to mechanical sensors connected directly to a computer. Each 360° clock-wise or counter clock-wise turn was automatically recorded for up to 120 minutes at the maximum. Throughout the experiments, rats were allocated to individual test cages.
Four different combinations were administered as add-on treatment to a low active dose of L-Dopa (25 mg/kg, ip) without any dopa decarboxylase inhibitor to avoid any additional pharmacokinetic interaction. The doses of the compounds were selected on the basis of preliminary dose-response curves performed separately for each drug. To avoid ceiling effect with L-Dopa, only submaximal doses of each drug were selected for testing (as it was done previously for monotherapy). Eight L-Dopa naïve animals were tested for each of the four pharmacological condition: vehicle and L-Dopa (25 mg/kg); A2A antagonist followed by vehicle and L-Dopa; vehicle followed by NR2B antagonist and L-Dopa; A2A antagonist followed by NR2B and L-Dopa. Due to the dominance of the L-Dopa-effect on the lesioned striatum, the unilateral 6-OHDA-lesioned rats rotated after the drugs administration and behavioral activity was recorded in rotometers (i.e. level of contralateral rotations).
All drugs were administered i.p. 25 minutes before behavioural recording, except for the Tozadenant and Radiprodil combination which was administered orally 60 minutes before behavioural recording. As Radiprodil was administered orally, L-Dopa was given 45 minutes after the Radiprodil injection whereas for the other combinations L-Dopa was given 15 minutes after the NR2B drug. The drugs, the doses and the combinations given in co-administration to L-Dopa are described in Table 4 .
The impact of treatment with A2A or NR2B receptor antagonists, given alone or in combination, on the effect of L-Dopa on contralateral rotations was also analysed with a three-way mixed ANOVA. The ANOVA included the A2A and the NR2B receptor antagonists (both, 2 levels, vehicle and the drug) as between-group factors combined with time (12 levels) as within-subjects factor. […] The ability of the combination to increase and prolong the activity of L-Dopa was also explored. Consequently, drug effects were analyzed for every 10-min time interval. […]

A1 = biological target: A1; set-up: method as in PMID 21810444, PMID 9933143, PMID 17236762; details: in vitro binding; rat or human; cited from earlier work
A2B = biological target: A2B; set-up: method as in PMID 21810444, PMID 9933143, PMID 17236762; details: in vitro binding; rat or human; cited from earlier work
A3 = biological target: A3; set-up: method as in PMID 21810444, PMID 9933143, PMID 17236762; details: in vitro binding; rat or human; cited from earlier work
cytochrome P-450 (CYP) = tested on: cytochrome P-450 (CYP); set-up: method as in earlier work; details: ref 62 (Preladenant), 49 (Merck 22); cited from earlier work
P-glycoprotein (Pgp) = tested on: P-glycoprotein (Pgp); set-up: method as in earlier work; details: ref 62 (Preladenant), 49 (Merck 22); cited from earlier work
[4] = tested on: haloperidol-induced catalepsy; details: threshold dose of Theophylline; cited from earlier work
[5] = tested on: rats with a unilateral lesion of the medial forebrain bundle; details: cited from earlier work
PD patients = details: cited from earlier work
[6] = tested on: L-Dopa-induced dyskinesia; set-up: method as in PMID 18759356; details: randomized double-blind placebo-controlled clinical trial; cited from earlier work
[7] = tested on: Reserpine-induced akinesia; set-up: method as in PMID 9918703; details: cited from earlier work
[8] = tested on: unilaterally 6-OHDA-lesioned rats; set-up: method as in PMID 15081591; details: rotometer; cited from earlier work
A2A = biological target: A2A; set-up: method as in PMID 21810444, PMID 9933143, PMID 17236762; details: in vitro binding; rat or human; cited from earlier work
CYP3A = tested on: CYP3A; set-up: method as in PMID 18552277; details: human subjects; cited from earlier work
P-gp = tested on: P-gp; set-up: method as in PMID 18552277; details: human subjects; cited from earlier work
[9] = Preladenant 0.1 mg/kg ip, Merck 22 0.3 mg/kg ip
[10] = Preladenant 0.1 mg/kg ip, Radiprodil 1 mg/kg ip
[11] = Istradefylline 0.3 mg/kg ip, Co-101244 1 mg/kg ip

Question: With `COCCOc1ccc(N2CCN(CCn3ncc4c3nc(N)n3nc(-c5ccco5)nc43)CC2)cc1` [Preladenant] as the molecule, how does the “Distance traveled, drugs alone vs vehicle, p (Newman-Keuls)” value [1, 9] read?
Answer: Preladenant: p<0.001

Question: What about the “Distance traveled, drugs main effect, p (three-way mixed ANOVA)” value [1, 9] of the same molecule?
Answer: p<0.001

Question: And the “Distance traveled, drugs × time effect, p (three-way mixed ANOVA)” value [1, 9]?
Answer: Not significant

Question: What about the “Distance traveled, drugs alone vs vehicle, p (Newman-Keuls)” value [1, 10] of the same molecule?
Answer: Both p<0.05

Question: And the “Distance traveled, drugs main effect, p (three-way mixed ANOVA)” value [1, 10]?
Answer: p<0.001

Question: And the “Distance traveled, drugs × time effect, p (three-way mixed ANOVA)” value [1, 10]?
Answer: Not significant

Question: And the “Distance traveled, drug alone in comparison to vehicle-treated controls” value ([1]; drug administered alone)?
Answer: significant increase

Question: What about the “Rearing counts, drugs alone vs vehicle, p (Newman-Keuls)” value [2, 9] of the same molecule?
Answer: Preladenant p<0.001

Question: And the “Rearing counts, drugs main effect, p (three-way mixed ANOVA)” value [2, 9]?
Answer: p<0.001

Question: What about the “Rearing counts, drugs × time effect, p (three-way mixed ANOVA)” value [2, 9] of the same molecule?
Answer: p<0.001

Question: What about the “Rearing counts, drugs alone vs vehicle, p (Newman-Keuls)” value [2, 10] of the same molecule?
Answer: Preladenant p<0.001

Question: And the “Rearing counts, drugs main effect, p (three-way mixed ANOVA)” value [2, 10]?
Answer: p<0.001

Question: What about the “Rearing counts, drugs × time effect, p (three-way mixed ANOVA)” value [2, 10] of the same molecule?
Answer: Not significant

Question: And the “Contralateral rotations, drugs alone vs vehicle, p (planned contrasts on each 10-min interval)” value ([3]; Merck 22 1 mg/kg ip)?
Answer: Not significant

Question: And the “Contralateral rotations, drugs main effect, p (three-way mixed ANOVA)” value ([3]; Merck 22 1 mg/kg ip)?
Answer: p<0.05

Question: And the “Contralateral rotations, drugs × time effect, p (three-way mixed ANOVA)” value ([3]; Merck 22 1 mg/kg ip)?
Answer: p<0.001

Question: What about the “Contralateral rotations, drugs alone vs vehicle, p (planned contrasts on each 10-min interval)” value ([3]; Radiprodil 0.3 mg/kg ip) of the same molecule?
Answer: Not significant

Question: What about the “Contralateral rotations, drugs main effect, p (three-way mixed ANOVA)” value ([3]; Radiprodil 0.3 mg/kg ip) of the same molecule?
Answer: p<0.01

Question: And the “Contralateral rotations, drugs × time effect, p (three-way mixed ANOVA)” value ([3]; Radiprodil 0.3 mg/kg ip)?
Answer: p<0.001

Question: And the Ki (A1)?
Answer: > 1 µM

Question: What about the Ki (A2B) of the same molecule?
Answer: > 1.7 µM

Question: What about the Ki (A3) of the same molecule?
Answer: > 1 µM

Question: What about the “In-vitro drug interactions with cytochrome P-450 (CYP)” value (cytochrome P-450 (CYP)) of the same molecule?
Answer: devoid of in-vitro risks of drug interactions

Question: And the “In-vitro drug interactions with P-glycoprotein (Pgp)” value (P-glycoprotein (Pgp))?
Answer: devoid of in-vitro risks of drug interactions

Question: For `C/C(=C\C(N)C(=O)O)CP(=O)(O)O` (stereo not drawn) [CGP37849], which “Effect of co-administration with Theophylline on haloperidol-induced catalepsy” value [4] is on record?
Answer: potentiate the effects of a threshold dose of Theophylline

Question: Which “Effect on stepping deficit” value [5] does the source give for `O=C(O)C1CN(CCCP(=O)(O)O)CCN1` (stereo not drawn) [CPP] here?
Answer: ameliorate the stepping deficit

Question: For `Cc1ccc(COC(=O)N2CC[C@H](CNc3ncccn3)[C@H](F)C2)cc1` [MK-0657], which “Result of clinical study as monotherapy” value (PD patients; single clinical study) is on record?
Answer: negative results

Question: For `C[C@@H]([C@@H](O)c1ccc(O)cc1)N1CCC(O)(c2ccccc2)CC1` [CP-101,606], which “Efficacy in counteracting L-Dopa-induced dyskinesia” value [6] is on record?
Answer: demonstrated efficacy

Question: Which “Effect on Reserpine-induced akinesia” value [7] does the source give for `CC(C(O)c1ccc(O)cc1)N1CCC(Cc2ccccc2)CC1` (stereo not drawn) [Ifenprodil] here?
Answer: counteract Reserpine-induced akinesia at the highest dose tested

Question: With `CC(C(O)c1ccc(O)cc1)N1CCC(Cc2ccccc2)CC1` (stereo not drawn) [Ro 25–6981] as the molecule, how does the “Induction of contralateral rotations as monotherapy” value [8] read?
Answer: inducing contralateral rotations

Question: Which “Effect of co-administration with Theophylline on haloperidol-induced catalepsy” value [4] does the source give for `C[C@]12N[C@H](Cc3ccccc31)c1ccccc12` [dizocilpine] here?
Answer: potentiate the effects of a threshold dose of Theophylline

Question: What does the source list for `CCn1c(=O)c2c(nc(/C=C/c3ccc(OC)c(OC)c3)n2C)n(CC)c1=O` [Istradefylline]?
Answer: Distance traveled, drugs alone vs vehicle, p (Newman-Keuls) [1, 11]: not all drugs when administered alone improved distance traveled; also recorded: Not significant; Distance traveled, drugs main effect, p (three-way mixed ANOVA) [1, 11]: p<0.001; Distance traveled, drugs × time effect, p (three-way mixed ANOVA) [1, 11]: Not significant; Rearing counts, drugs alone vs vehicle, p (Newman-Keuls) [2, 11]: Istradefylline, p<0.01; Rearing counts, drugs main effect, p (three-way mixed ANOVA) [2, 11]: p<0.001; Rearing counts, drugs × time effect, p (three-way mixed ANOVA) [2, 11]: p<0.01; Ki (A2A): 0.012 µM; Ki (A1): 0.841 µM; Ki (A2B): > 10 µM; Ki (A3): 4.47 µM; Effect on CYP3A-mediated drug metabolism (CYP3A): does not impair; Inhibition of P-gp (P-gp): modest inhibition; Clinical efficacy when combined with L-Dopa (PD patients; PD patients): demonstrated significant efficacy; Clinical benefit as monotherapy (without L-Dopa) (PD patients; de-novo PD patients): did not produce statistically significant benefits
